IC50 data for 40 compounds are collected here from patent publication US8933079B2, “Pyridone and pyridazinone derivatives as anti-obesity agents” (Boehringer Ingelheim International GmbH, priority 2012, dated 2015).

Molecules are shown by their SMILES.

hMCH-1R, sequence (Q99705 whole entry): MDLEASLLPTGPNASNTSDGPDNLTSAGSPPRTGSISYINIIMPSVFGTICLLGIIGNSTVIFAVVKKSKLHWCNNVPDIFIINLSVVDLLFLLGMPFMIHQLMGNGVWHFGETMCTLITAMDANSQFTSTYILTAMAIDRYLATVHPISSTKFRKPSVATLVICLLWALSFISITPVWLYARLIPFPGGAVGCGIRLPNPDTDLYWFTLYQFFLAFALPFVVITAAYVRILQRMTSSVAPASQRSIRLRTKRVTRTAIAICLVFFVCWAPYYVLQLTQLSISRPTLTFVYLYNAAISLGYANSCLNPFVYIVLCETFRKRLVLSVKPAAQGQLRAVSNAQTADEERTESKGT

For this assay, the target named is hMCH-1R (Homo sapiens (Human), UniProt Q99705). As to the kind of experiment: MCH-1 receptor binding test (125I-MCH binding to hMCH-1R transfected cell membranes). Conditions: competition with 100 pM 125I-MCH, membranes of CHO/Galpha16 cells stably transfected with hMCH-1R. The protocol:
Res Commun. […] After the incubation the reaction is filtered using a cell harvester through 0.5% PEI treated fibreglass filters (GF/B, Unifilter Packard). The membrane-bound radioactivity retained on the filter is then determined after the addition of scintillator substance (Packard Microscint 20) in a measuring device (TopCount of Packard). […] The analysis of the concentration binding curve is carried out on the assumption of one receptor binding site.
For the compound `Cc1cc(CN2CCCCC2)ccc1C(=O)Cn1ccc(OCc2ccc(Cl)cn2)cc1=O` [Example 3.6], the IC50 (in general, the concentration at which inhibition is half-maximal) was found to be 26 nM.
In the case of `CCN(CC)Cc1ccc(C(=O)Cn2ccc(OCc3ccc(Br)cn3)cc2=O)c(C)c1` [Example 4.20, 4-(5-Bromo-pyridin-2-ylmethoxy)-1-[2-(4-diethylaminomethyl-2-methyl-phenyl)-2-oxo-ethyl]-1H-pyridin-2-one] it was 19 nM.
For `CNCc1ccc(C(=O)Cn2ccc(OCc3ccccc3)cc2=O)c(C)c1` [Example 1.2, 4-Benzyloxy-1-[2-(2-methyl-4-methylaminomethyl-phenyl)-2-oxo-ethyl]-1H-pyridin-2-one], the IC50 turned out to be 19 nM.
Compound `CCNCc1ccc(C(=O)Cn2ccc(OCc3ccc(Br)cn3)cc2=O)c(C)c1` [Example 4.6, 4-(5-Bromo-pyridin-2-ylmethoxy)-1-[2-(4-ethylaminomethyl-2-methyl-phenyl)-2-oxo-ethyl]-1H-pyridin-2-one] registered an IC50 of 50 nM.
In the case of `Cc1cc(CN2CCC2)ccc1C(=O)Cn1ccc(OCc2ccc(Br)cn2)cc1=O` [Example 4.21, 1-[2-(4-Azetidin-1-ylmethyl-2-methyl-phenyl)-2-oxo-ethyl]-4-(5-bromo-pyridin-2-ylmethoxy)-1H-pyridin-2-one] it was 18 nM; in that of `CCNCc1ccc(C(=O)Cn2ncc(OCc3ccc(Br)cn3)cc2=O)c(C)c1` [Example 8.8, 5-(5-Bromo-pyridin-2-ylmethoxy)-2-[2-(4-ethylaminomethyl-2-methyl-phenyl)-2-oxo-ethyl]-2H-pyridazin-3-one], 17 nM.
In the case of `Cc1cc(CN2CCC(O)CC2)ccc1C(=O)Cn1ncc(OCc2ccc(Br)cn2)cc1=O` [Example 8.9, 5-(5-Bromo-pyridin-2-ylmethoxy)-2-{2-[4-(4-hydroxy-piperidin-1-ylmethyl)-2-methyl-phenyl]-2-oxo-ethyl}-2H-pyridazin-3-one] it was 18 nM; in that of `Cc1cc(CN2CCCCC2)ccc1C(=O)Cn1ncc(OCc2ccc(Cl)cn2)cc1=O` [Example 7.5], 16 nM; in that of `Cc1cc(CN2CCOCC2)ccc1C(=O)Cn1ccc(OCc2ccccc2)cc1=O` [Example 1.4], 40 nM.
Turning to `Cc1cc(CN2CCC[C@H]2CO)ccc1C(=O)Cn1ncc(OCc2ccc(Br)cn2)cc1=O` [Example 8.11], the IC50 came out at 21 nM. Against the preceding compound, the IC50 is about 1.9-fold lower.
Regarding `Cc1cc(CN2CC(O)C2)ccc1C(=O)Cn1ccc(OCc2ccc(Cl)cn2)cc1=O` [Example 3.15, 4-(5-Chloro-pyridin-2-ylmethoxy)-1-{2-[4-(3-hydroxy-azetidin-1-ylmethyl)-2-methyl-phenyl]-2-oxo-ethyl}-1H-pyridin-2-one], the IC50 was found to be 31 nM. The IC50 values of the last two compounds are within 1.5-fold of each other.
In the case of `Cc1cc(CN2CCC(C)(O)C2)ccc1C(=O)Cn1ncc(OCc2ccc(Br)cn2)cc1=O` (stereo not shown) [Example 8.5] it was 18 nM.
The result for `Cc1cc(CN2CCC(O)CC2)ccc1C(=O)Cn1ccc(OCc2ccc(Cl)cn2)cc1=O` [Example 3.7] reads 36 nM; that for `Cc1cc(CN2CCC(CO)CC2)ccc1C(=O)Cn1ncc(OCc2ccccc2)cc1=O` [Example 5.11, 5-Benzyloxy-2-{2-[4-(4-hydroxymethyl-piperidin-1-ylmethyl)-2-methyl-phenyl]-2-oxo-ethyl}-2H-pyridazin-3-one], 13 nM; that for `Cc1cc(CN2CCC[C@H]2CO)ccc1C(=O)Cn1ncc(OCc2ccc(Cl)cn2)cc1=O` [Example 7.1, (S)-5-(5-Chloro-pyridin-2-ylmethoxy)-2-{2-[4-(2-hydroxymethyl-pyrrolidin-1-ylmethyl)-2-methyl-phenyl]-2-oxo-ethyl}-2H-pyridazin-3-one], 26 nM.
The result for `Cc1cc(CN2CCCC[C@@H]2CO)ccc1C(=O)Cn1ccc(OCc2ccccc2)cc1=O` [Example 1.16] reads 29 nM; that for `CCN1CCN(Cc2ccc(C(=O)Cn3ccc(OCc4ccc(Br)cn4)cc3=O)c(C)c2)CC1` [Example 4.10], 53 nM; that for `Cc1cc(CN2CCCCC2)ccc1C(=O)Cn1ncc(OCc2ccc(F)cn2)cc1=O` [Example 6.2, 5-(5-Fluoro-pyridin-2-ylmethoxy)-2-[2-(2-methyl-4-piperidin-1-ylmethyl-phenyl)-2-oxo-ethyl]-2H-pyridazin-3-one], 35 nM.
With `CCN1CCN(Cc2ccc(C(=O)Cn3ccc(OCc4ccc(Cl)cn4)cc3=O)c(C)c2)CC1` [Example 3.1, 4-(5-Chloro-pyridin-2-ylmethoxy)-1-{2-[4-(4-ethyl-piperazin-1-ylmethyl)-2-methyl-phenyl]-2-oxo-ethyl}-1H-pyridin-2-one], the IC50 stood at 79 nM.
In the case of `Cc1cc(CN2CC[C@H](O)C2)ccc1C(=O)Cn1ccc(OCc2ccc(Cl)cn2)cc1=O` [Example 3.3] it was 39 nM; in that of `COc1ccc(COc2ccn(CC(=O)c3ccc(CN4CCCC4)cc3C)c(=O)c2)nc1` [Example 11.3], 26 nM.
The result for `Cc1cc(CN2CCC(O)CC2)ccc1C(=O)Cn1ncc(OCc2ccccc2)cc1=O` [Example 5.8] reads 15 nM; that for `Cc1cc(CN2CCCC2)ccc1C(=O)Cn1ccc(OCc2ccc(F)cn2)cc1=O` [Example 2.1, 4-(5-Fluoro-pyridin-2-ylmethoxy)-1-[2-(2-methyl-4-pyrrolidin-1-ylmethyl-phenyl)-2-oxo-ethyl]-1H-pyridin-2-one], 67 nM; that for `Cc1cc(CN2CCC(C)(O)C2)ccc1C(=O)Cn1ccc(OCc2ccccc2)cc1=O` (stereo not shown) [Example 1.10, 4-Benzyloxy-1-{2-[4-(3-hydroxy-3-methyl-pyrrolidin-1-ylmethyl)-2-methyl-phenyl]-2-oxo-ethyl}-1H-pyridin-2-one], 26 nM.
In the case of `COc1ccc(COc2ccn(CC(=O)c3ccc(CN(C)C)cc3C)c(=O)c2)nc1` [Example 11.2] it was 57 nM; in that of `Cc1cc(CN2CCC(O)CC2)ccc1C(=O)Cn1ncc(OCc2ccc(F)cn2)cc1=O` [Example 6.4], 58 nM; in that of `Cc1cc(CN2CCC(O)CC2)ccc1C(=O)Cn1ccc(OCc2ccccc2)cc1=O` [Example 1.3, 4-Benzyloxy-1-{2-[4-(4-hydroxy-piperidin-1-ylmethyl)-2-methyl-phenyl]-2-oxo-ethyl}-1H-pyridin-2-one], 19 nM.
As for `Cc1cc(CN2CCCC[C@@H]2CO)ccc1C(=O)Cn1ccc(OCc2ccc(Br)cn2)cc1=O` [Example 4.7, (R)-4-(5-Bromo-pyridin-2-ylmethoxy)-1-{2-[4-(2-hydroxymethyl-piperidin-1-ylmethyl)-2-methyl-phenyl]-2-oxo-ethyl}-1H-pyridin-2-one], the IC50 amounted to 14 nM.
With `Cc1cc(CN2CC(O)C2)ccc1C(=O)Cn1ncc(OCc2ccc(Cl)cn2)cc1=O` [Example 7.3], the IC50 turned out to be 27 nM.
For the compound `COc1ccc(COc2cnn(CC(=O)c3ccc(CN4CCC(O)CC4)cc3C)c(=O)c2)nc1` [Example 9.2, 2-{2-[4-(4-Hydroxy-piperidin-1-ylmethyl)-2-methyl-phenyl]-2-oxo-ethyl}-5-(5-methoxy-pyridin-2-ylmethoxy)-2H-pyridazin-3-one], the 50% inhibitory concentration (IC50) is 34 nM.
In the case of `CCNCc1ccc(C(=O)Cn2ccc(OCc3ccc(Cl)cn3)cc2=O)c(C)c1` [Example 3.11, 4-(5-Chloro-pyridin-2-ylmethoxy)-1-[2-(4-ethylaminomethyl-2-methyl-phenyl)-2-oxo-ethyl]-1H-pyridin-2-one], the half-inhibitory concentration (IC50) came to 26 nM.
The result for `Cc1cc(CN2CC[C@@H](O)C2)ccc1C(=O)Cn1ncc(OCc2ccccc2)cc1=O` [Example 5.4, (R)-5-Benzyloxy-2-{2-[4-(3-hydroxy-pyrrolidin-1-ylmethyl)-2-methyl-phenyl]-2-oxo-ethyl}-2H-pyridazin-3-one] reads 12 nM; that for `Cc1cc(CN2CCCC2)ccc1C(=O)Cn1ccc(OCc2ccc(Cl)cn2)cc1=O` [Example 3.8, 4-(5-Chloro-pyridin-2-ylmethoxy)-1-[2-(2-methyl-4-pyrrolidin-1-ylmethyl-phenyl)-2-oxo-ethyl]-1H-pyridin-2-one], 26 nM; that for `Cc1cc(CN2CC[C@@H](O)C2)ccc1C(=O)Cn1ncc(OCc2ccc(Br)cn2)cc1=O` [Example 8.1, (R)-5-(5-Bromo-pyridin-2-ylmethoxy)-2-{2-[4-(3-hydroxy-pyrrolidin-1-ylmethyl)-2-methyl-phenyl]-2-oxo-ethyl}-2H-pyridazin-3-one], 22 nM.
The result for `Cc1cc(CN2CCCC2)ccc1C(=O)Cn1ccc(OCc2ccc(Br)cn2)cc1=O` [Example 4.8, 4-(5-Bromo-pyridin-2-ylmethoxy)-1-[2-(2-methyl-4-pyrrolidin-1-ylmethyl-phenyl)-2-oxo-ethyl]-1H-pyridin-2-one] reads 17 nM; that for `Cc1cc(CN2CC[C@H](O)C2)ccc1C(=O)Cn1ccc(OCc2ccccc2)cc1=O` [Example 1.11, (S)-4-Benzyloxy-1-{2-[4-(3-hydroxy-pyrrolidin-1-ylmethyl)-2-methyl-phenyl]-2-oxo-ethyl}-1H-pyridin-2-one], 30 nM.
`Cc1cc(CN2CCCCC2)ccc1C(=O)Cn1ccc(OCc2ccc(F)cn2)cc1=O` [Example 2.2] came in with an IC50 of 116 nM.
With `Cc1cc(CN2CC(O)C2)ccc1C(=O)Cn1ncc(OCc2ccc(Br)cn2)cc1=O` [Example 8.2, 5-(5-Bromo-pyridin-2-ylmethoxy)-2-{2-[4-(3-hydroxy-azetidin-1-ylmethyl)-2-methyl-phenyl]-2-oxo-ethyl}-2H-pyridazin-3-one], the IC50 was 19 nM. This IC50 is about 6.1-fold lower than that of the compound before.
In the case of `CCNCc1ccc(C(=O)Cn2ccc(OCc3ccc(OC)cn3)cc2=O)c(C)c1` [Example 11.4] it was 54 nM.
In the case of `Cc1cc(CN2CCC(O)CC2)ccc1C(=O)Cn1ccc(OCc2ccc(Br)cn2)cc1=O` [Example 4.2, 4-(5-Bromo-pyridin-2-ylmethoxy)-1-{2-[4-(4-hydroxy-piperidin-1-ylmethyl)-2-methyl-phenyl]-2-oxo-ethyl}-1H-pyridin-2-one] it was 16 nM.
